Data from patent US20140341853A1, “Bacteria-Mediated Therapy for Cancer” (priority 2013, published 2014).

Test system: yeast cells
Experiment: MTT assay using transformed E. coli, yeast cells and Daun02 as the prodrug
Assay type: cell-based
Protocol: In an exemplary embodiment, E. coli BL21 cells were transformed with the pSV-β-Galactosidase plasmid which contains a gene for beta-gal (available from Promega, Wisconsin, USA). Other types of bacteria and differently configured plasmids can also be used. Yeast can act as a eukaryotic cell model for cancer cells. Yeast cells contain mitochondria and a number of proteins homologous to those in humans. A MTT assay was performed using the transformed E. coli, yeast cells, and Daun02 as the prodrug. MTT is a tetrazolium dye which is converted into an insoluble purple-colored product (formazan) by live cells. The presence of formazan was measured spectrophotometrically. […] FIGS. 2A and 2B illustrate results of studies in which growing yeast cells were exposed to transformed E. coli BL21 cells and the prodrug Daun02. Bacteria and yeast were cultured over night and allowed to grow for 3 hours to be in optimal linear growth phase and samples were incubated together for approximately 5.5 or 10 hours in a 96 well microwell plate. The antibiotic kanamycin was added to all sample wells to reduce bacterial background signal. MTT dye was then added to wells and samples were incubated for three hours. A solubilization solution was then added, incubated for one hour, and the optical density was measured at 570 nm with a microplate reader. The absorbance at 570 nm of bacteria-only and bacteria and yeast-only samples were also measured. […] FIGS. 2A and 2B display results from different treatment times: 5.5 hours and 10 hours, respectively. […] Samples C and D contained beta-gal expressing bacteria, prodrug, and yeast cells. […] The length of time can be increased or decreased to increase the effectiveness of the treatment. […] A 2-Sample T-Test between the control sample and Sample C in the 10 hour experiment returned a p-value of 0.00296. […] Both p-values are smaller than the alpha level of 0.05 chosen before experimentation.

Question: `COc1cccc2c1C(=O)c1c(O)c3c(c(O)c1C2=O)C[C@@](O)(C(C)=O)C[C@@H]3O[C@H]1C[C@H](NC(=O)OCc2ccc(O[C@@H]3O[C@H](CO)[C@H](O)[C@H](O)[C@H]3O)c([N+](=O)[O-])c2)[C@H](O)[C@H](C)O1` [Daun02, N-[4″-(β-galactopyranosyl)-3″-nitrobenzyloxycarbonyl]daunomycin] was tested. Which “MTT absorbance at 570 nm (yeast cell survival)” value (“MTT absorbance at 570 nm” for short) (Sample C: 2.5 μM Daun02 with beta-gal expressing E. coli BL21, 10 hours, p-value 0.00296 vs control) did it give?
Answer: yeast cell death

Question: And the “MTT absorbance at 570 nm” value (Sample D: 5 μM Daun02 with beta-gal expressing E. coli BL21, 5.5 hours, bacterial background subtracted)?
Answer: low absorption values

Question: What about the “MTT absorbance at 570 nm” value (Sample D: 5 μM Daun02 with beta-gal expressing E. coli BL21, 10 hours, p-value 0.00593 vs control) of the same compound?
Answer: yeast cell death

Question: What about the “MTT absorbance at 570 nm” value (Samples A and B: yeast and prodrug, no bacteria (no added beta-gal enzyme), 5.5 and 10 hours) of the same compound?
Answer: close to the control values
